Literature values, collected in patent US20250375409A1, “Treatment of REM Behavior Disorder” (Vanda Pharmaceuticals Inc., priority 2024, published 2025).

Columns and labels:
[1] = following an oral dose; large first pass effect

Compound: CCC(=O)NCC[C@@H]1CCc2ccc3c(c21)CCO3 [ramelteon]
- RBD outcome in open label trial (Esaki et al., 12 patients with idiopathic RBD, 8 mg given 30 minutes before bedtime): trend towards improvement
- RBD symptoms, including the RBD severity scale (RBDSS) (Nomura et al. 2013, 8 mg, two patients with RBD in association with Parkinsonian syndromes): improvement of their RBD symptoms
- RBD outcome in patients with Parkinson's disease (patients with Parkinson's disease, with or without RBD, after treatment): statistically significant RBD improvement
- mean systemic availability [1]: less than 2%
